# From patent US11679104B2, “Compositions and methods of enhancing the homing and/or engraftment of hematopoietic cells in the central nervous system” (Duke University, priority 2017, dated 2023)
# “Also recorded” adds a separate entry of the source.
# Test system: microglia
# Assay: BMT with UBC-GFP bone marrow followed by PLX5622 chow: beMφ engraftment into the brain
# Format: in vivo, mice
# Conditions: for GFP+ beMφ engraftment in the brain: 1 week recovery, 6 weeks standard chow
# Text: Mice were γ-irradiated with a lethal dose of 1000 rad. Four hours post irradiation, mice were intravenously injected with 5×10^6 bone marrow cells. Mice were given water supplemented with trimethoprim-sulfamethoxazole for two weeks and monitored daily for the first 4 days. A lead shield was placed over the head during irradiation in some experiments, as indicated.
# To determine transcriptional and morphological changes of microglia and beMφ to an insult, mice were given a peripheral LPS challenge. Mice were first irradiated and given BMT with UBC-GFP bone marrow. To target microglia, head shielding was applied during irradiation in some mice. After 1 week of recovery, mice were treated with PLX 5622 for 2 weeks to deplete the brain macrophage niche then placed on standard chow for 6 weeks. Mice were injected with 50 μg LPS or saline (i.p.). 6 hours later, brains were removed and macrophages sorted by MACS on CD11B beads as described above.
# We utilized the Csf1r inhibitor PLX5622 in chow, to eliminate irradiation-damaged, yet still viable, microglia. Mice were given BMT with UBC-GFP bone marrow with or without head covering during irradiation, followed by 1 week of recovery, 2 weeks of chow containing PLX5622, and finally 6 weeks of recovery on standard chow.
# Our third model (see Example 2) was designed to take advantage of the synergistic effect on engraftment we had observed with the combination of CNS irradiation and Csf1r deletion in microglia. Instead of Csf1r deletion using our genetic model, we utilized the Csf1r inhibitor PLX5622 in chow, to eliminate the irradiation-damaged, yet still viable, microglia. Mice were given BMT with UBC-GFP bone marrow with or without head covering during irradiation, followed by 1 week of recovery, 2 weeks of chow containing PLX5622, and finally 6 weeks of recovery on standard chow. […] Due to the robust level of engraftment in this model, we sorted GFP+ beMφ from whole body irradiated mice and GFP microglia from head covered mice for RNA-seq. Mice were injected i.p. with saline or LPS 6 hours prior to cell collection. Microglia and beMφ were FACS sorted from mice with or without head-covering, respectively, and then RNA-seq followed by differential expression analysis was performed (n=3 microglia samples, pooled from 3 total mice for each sample, and n=3 beMφ samples, pooled from 3 total mice for each sample; performed once).
compound,measurement,setting,value
COc1ncc(F)cc1CNc1ccc(Cc2c[nH]c3ncc(C)cc23)c(F)n1 [PLX5622],GFP+ beMφ engraftment in the brain,"BMT with head covering during irradiation, 2 weeks PLX5622 chow",minimal GFP+ beMφ engraftment
same,repopulation of the CNS with endogenous microglia,"BMT with head covering during irradiation, 2 weeks PLX5622 chow, then 6 weeks standard chow",effectively repopulated the CNS with endogenous microglia
same,GFP+ beMφ engraftment in the brain,"BMT with whole body irradiation, 2 weeks PLX5622 chow",robust engraftment of GFP+ beMφ; also recorded: robust engraftment of GFP+ beMϕ
same,repopulation of microglia by beMφ,system of BMT and PLX5622 treatment for beMφ engraftment,substantial repopulation of microglia by beMϕ
same,potentiation of engraftment of hematopoietic-derived macrophages into the brains of mice,used as part of a protocol that clears the microglial niche,can potentiate engraftment
